Patent US20250179047A1, “5-[7-(3,4-DIHYDRO-1H-ISOQUINOLINE-2-CARBONYL)-1,2,3,4 TETRAHYDROISOQUINOLIN-6-YL]-1H-PYRROLE-3-CARBOXAMIDE DERIVATIVES, PHARMACEUTICAL COMPOSITIONS CONTAINING THEM AND THEIR USES AS PRO-APOPTOTIC AGENTS” (LES LABORATOIRES SERVIER, priority 2022, published 2025)

Tests used:
KMS-12-PE Bcl-2 G101V = test: In vitro cytotoxicity CellTiter-Glo 48 h, KMS-12-PE Bcl-2 G101V; format: cell-based; details: for Ratio (G101V/WT): C50 KMS-12-PE Bcl-2 G101V over C50 KMS-12-PE Bcl-2 WT; for IC50: Homo sapiens, KMS-12-PE, 48 h, CellTiter-Glo, C50 = concentration needed to reach 50% of the cellular viability
Outline: (§1)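 Viability measured by CellTiter-Glo luminescence after 48 h compound exposure (11-point curve, 37 °C, 5% CO2). Cells: KMS-12-PE transduced with wild-type or G101V-mutant Bcl-2, FACS-sorted for TagRFP. Reported C50 = concentration reaching 50% cellular viability.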

BCL2 D103Y = BCL2 D103Y (Homo sapiens, UniProt P10415, D103Y); test: TR-FRET competitive binding assay, BCL2 D103Y; details: Ki determined from IC50, read-out: TR_FRET EKI_Bcl2 D103Y
Outline: (§2)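 Ki derived from IC50 (11-point dilution, 520/495 nm emission ratio) for displacing a fluorescein-labelled PUMA peptide (2 or 20 nM). Target was 0.5 nM E. coli-expressed Halo-tagged BCL2 (1-207) or BCLXL (2-196), terbium-labelled on Halo. Incubation 2 h at 23°C in pH 7.5 Hepes with 150 mM NaCl and 5% DMSO.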

BCL2 WT = BCL2 WT (Homo sapiens (Human), UniProt P10415); test: TR-FRET competitive binding assay, BCL2 WT; details: Ki determined from IC50, read-out: TR_FRET EKI_Bcl2 WT
Outline: as §2

BCL2 G101V [1] = target: BCL2 G101V (Homo sapiens, UniProt P10415, G101V); test: TR-FRET competitive binding assay, BCL2 G101V; details: BCL2 G101V; Ki determined from IC50; read-out: TR_FRET EKI_Bcl2 G101V
Outline: as §2

BCL2 G101V [2] = test: TR-FRET competitive binding assay, BCL2 G101V; parameters: species or system human; details: ratio Ki BCL2 G101V / Ki BCL2 WT
Outline: as §2

KMS-12-PE Bcl-2 WT = test: In vitro cytotoxicity CellTiter-Glo 48 h, KMS-12-PE Bcl-2 WT; format: cell-based; details: C50 = concentration needed to reach 50% of the cellular viability
Outline: as §1

BCL2 F104I = BCL2 F104I (Homo sapiens, UniProt P10415, F104I); test: TR-FRET competitive binding assay, BCL2 F104I; details: Ki determined from IC50, read-out: TR_FRET EKI_Bcl2 F104I
Outline: as §2

BCLXL WT = BCLXL WT (Homo sapiens (Human), UniProt Q07817); test: TR-FRET competitive binding assay, BCLXL WT; details: for Ki: BCLXL WT, Ki determined from IC50, read-out: TR_FRET EKI BclxL; for TR_FRET EKI BCLxL/WT selectivty ratio: ratio Ki BCLxL / Ki BCL2 WT
Outline: as §2

BCL2 D111A = BCL2 D111A (Homo sapiens, UniProt P10415, D111A); test: TR-FRET competitive binding assay, BCL2 D111A; details: Ki determined from IC50, read-out: TR_FRET EKI_Bcl2 D111A
Outline: as §2

BCLXL WT, sequence (Q07817 other isoform, or with tags, fused parts or gaps): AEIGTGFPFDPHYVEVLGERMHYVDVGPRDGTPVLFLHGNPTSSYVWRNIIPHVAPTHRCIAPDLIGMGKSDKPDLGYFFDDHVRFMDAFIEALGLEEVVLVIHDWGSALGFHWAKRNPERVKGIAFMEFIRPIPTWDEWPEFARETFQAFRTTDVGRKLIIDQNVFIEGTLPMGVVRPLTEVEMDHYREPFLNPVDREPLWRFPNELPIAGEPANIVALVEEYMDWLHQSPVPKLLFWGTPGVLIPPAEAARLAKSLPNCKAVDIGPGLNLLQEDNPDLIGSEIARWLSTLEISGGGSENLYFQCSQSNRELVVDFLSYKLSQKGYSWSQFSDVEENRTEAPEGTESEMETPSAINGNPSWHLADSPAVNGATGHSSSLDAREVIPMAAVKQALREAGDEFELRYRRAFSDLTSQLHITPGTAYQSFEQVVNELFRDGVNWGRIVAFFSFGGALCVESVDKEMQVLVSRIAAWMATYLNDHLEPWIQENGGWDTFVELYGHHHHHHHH

| Structure (SMILES) | Ratio (G101V/WT) (KMS-12-PE Bcl-2 G101V) | IC50 (KMS-12-PE Bcl-2 G101V) [µM] | Ki (BCL2 D103Y) [nM] | Ki (BCL2 WT) [nM] | Ki (BCL2 G101V [1]) [nM] | TR_FRET EKI G101V/WT selectivty ratio (BCL2 G101V [2]) | IC50 (KMS-12-PE Bcl-2 WT; Homo sapiens, KMS-12-PE) [µM] | Ki (BCL2 F104I) [nM] | Ki (BCLXL WT) [nM] | TR_FRET EKI BCLxL/WT selectivty ratio (BCLXL WT) | Ki (BCL2 D111A) [nM] | IC50 (KMS-12-PE Bcl-2 WT) [µM] |
| --- | --- | --- | --- | --- | --- | --- | --- | --- | --- | --- | --- | --- |
| Cc1c(N(C(=O)c2cc(-c3cc4c(cc3C(=O)N3Cc5ccccc5C[C@H]3C)CN(C(=O)Cc3ccc(OCCN5CCC(F)(F)C5)cc3)CC4)n(C)c2C)c2ccc(O)cc2)cc(C#N)n1C [Example 50, N-(5-cyano-1,2-dimethyl-1H-pyrrol-3-yl)-5-[2-(2-{4-[2-(3,3-difluoropyrrolidin-1-yl)ethoxy]phenyl}acetyl)-7-[(3R)-3-methyl-1,2,3,4-tetrahydroisoquinoline-2-carbonyl]-1,2,3,4-tetrahydroisoquinolin-6-yl]-N-(4-hydroxyphenyl)-1,2-dimethyl-1H-pyrrole-3-carboxamide] | 6.53 | 0.0341 | 0.58 | 0.26 | 0.6 | 2.3 | 0.0052 | 4.66 | 5.8 | 22.3 | 1.46 | – |
| Cc1c(N(C(=O)c2cc(-c3cc4c(cc3C(=O)N3Cc5ccccc5C[C@H]3C)CN(C(=O)Cc3ccc(OCCN5CCO[C@@H](C)C5)cc3)CC4)n(C)c2C)c2ccc(O)cc2)cc(C#N)n1C [Example 57, N-(5-cyano-1,2-dimethyl-1H-pyrrol-3-yl)-N-(4-hydroxyphenyl)-1,2-dimethyl-5-{7-[(3R)-3-methyl-1,2,3,4-tetrahydroisoquinoline-2-carbonyl]-2-(2-{4-[2-((2S)-2-methylmorpholin-4-yl)ethoxy]phenyl}acetyl)-1,2,3,4-tetrahydroisoquinolin-6-yl}-1H-pyrrole-3-carboxamide] | 4.32 | 0.0208 | 0.15 | 0.05 | 0.2 | 4.1 | 0.0048 | 0.47 | 1.7 | 34.7 | 0.21 | – |
| Cc1c(N(C(=O)c2cc(-c3cc4c(cc3C(=O)N3Cc5ccccc5C[C@H]3C)CN(C(=O)Cc3ccc(OCCN(C)C5COC5)cc3)CC4)n(C)c2C)c2ccc(O)cc2)cc(C#N)n1C [Example 60, N-(5-cyano-1,2-dimethyl-1H-pyrrol-3-yl)-N-(4-hydroxyphenyl)-1,2-dimethyl-5-{2-[2-(4-{2-[methyl(oxetan-3-yl)amino]ethoxy}phenyl)acetyl]-7-[(3R)-3-methyl-1,2,3,4-tetrahydroisoquinoline-2-carbonyl]-1,2,3,4-tetrahydroisoquinolin-6-yl}-1H-pyrrole-3-carboxamide] | 4.91 | 0.0367 | 0.14 | 0.05 | 0.2 | 3.5 | 0.0075 | 0.21 | 1 | 19.2 | 0.09 | – |
| Cc1c(N(C(=O)c2cc(-c3cc4c(cc3C(=O)N3Cc5ccccc5C[C@H]3C)CN(C(=O)Cc3ccc(OCCN(C)C5CC5)nc3)CC4)n(C)c2C)c2ccc(O)cc2)cc(C#N)n1C [Example 61, N-(5-cyano-1,2-dimethyl-1H-pyrrol-3-yl)-5-{2-[2-(6-{2-[cyclopropyl(methyl)amino]ethoxy}pyridin-3-yl)acetyl]-7-[(3R)-3-methyl-1,2,3,4-tetrahydroisoquinoline-2-carbonyl]-1,2,3,4-tetrahydroisoquinolin-6-yl}-N-(4-hydroxyphenyl)-1,2-dimethyl-1H-pyrrole-3-carboxamide] | 5.76 | 0.0824 | 0.13 | 0.04 | 0.2 | 5.0 | 0.0143 | 1.02 | 1.5 | 35.7 | 0.18 | – |
| Cc1c(C(=O)N(c2ccc(O)cc2)c2cnc3c(cnn3C)c2)cc(-c2cc3c(cc2C(=O)N2Cc4ccccc4C[C@H]2C)CN(C(=O)Cc2ccc(OCCN4CCOCC4)cc2)CC3)n1C [Example 62, N-(4-hydroxyphenyl)-1,2-dimethyl-5-(7-{[(3R)-3-methyl-3,4-dihydro-1H-isoquinolin-2-yl]carbonyl}-2-(2-{4-[2-(morpholin-4-yl)ethoxy]phenyl}acetyl)-3,4-dihydro-1H-isoquinolin-6-yl)-N-{1-methylpyrazolo[3,4-b]pyridin-5-yl}pyrrole-3-carboxamide] | 7.56 | 0.0892 | 0.47 | 0.06 | 0.3 | 5.5 | 0.0118 | 0.38 | 2.4 | 38.7 | 0.09 | – |
| Cc1c(N(C(=O)c2cc(-c3cc4c(cc3C(=O)N3Cc5ccccc5C[C@H]3C)CN(C(=O)Cc3ccc(OCCN5CCOCC5)cc3)CC4)n(C)c2C)c2ccccc2)cc(C#N)n1C [Example 65, N-(5-cyano-1,2-dimethylpyrrol-3-yl)-1,2-dimethyl-5-(7-{[(3R)-3-methyl-3,4-dihydro-1H-isoquinolin-2-yl]carbonyl}-2-(2-{4-[2-(morpholin-4-yl)ethoxy]phenyl}acetyl)-3,4-dihydro-1H-isoquinolin-6-yl)-N-phenylpyrrole-3-carboxamide] | 15 | 0.0414 | 0.8 | 0.08 | 0.7 | 9.4 | – | 1.12 | 4.1 | 52.6 | 0.14 | 0.0028 |
| Cc1c(C(=O)N(c2ccc(O)cc2)c2cc(C#N)n(C3CC3)c2C)cc(-c2cc3c(cc2C(=O)N2Cc4ccccc4C[C@H]2C)CN(C(=O)Cc2ccc(OCCN4CCOCC4)cc2)CC3)n1C [Example 71, N-(5-cyano-1-cyclopropyl-2-methyl-pyrrol-3-yl)-N-(4-hydroxyphenyl)-1,2-dimethyl-5-[7-[(3R)-3-methyl-3,4-dihydro-1H-isoquinoline-2-carbonyl]-2-[2-[4-(2-morpholinoethoxy)phenyl]acetyl]-3,4-dihydro-1H-isoquinolin-6-yl]pyrrole-3-carboxamide] | 3.88 | 0.0356 | 0.68 | 0.15 | 1.2 | 8.0 | 0.0092 | 1.02 | 1.6 | 10.7 | 0.31 | – |
| COc1ncc(N(C(=O)c2cc(-c3cc4c(cc3C(=O)N3Cc5ccccc5C[C@H]3C)CN(C(=O)Cc3ccc(OCCN5CCOCC5)cc3)CC4)n(C)c2C)c2ccc(O)cc2)cc1F [Example 72, N-(5-fluoro-6-methoxypyridin-3-yl)-N-(4-hydroxyphenyl)-1,2-dimethyl-5-(7-{[(3R)-3-methyl-3,4-dihydro-1H-isoquinolin-2-yl]carbonyl}-2-(2-{4-[2-(morpholin-4-yl)ethoxy]phenyl}acetyl)-3,4-dihydro-1H-isoquinolin-6-yl)pyrrole-3-carboxamide] | 6.42 | 0.0427 | 0.37 | 0.14 | 0.9 | 6.1 | 0.0066 | 1.17 | 3.7 | 26.4 | 0.21 | – |
